Experimental data reported in patent publication US7846928B2, “Substituted pyrazolopyridines and salts thereof, pharmaceutical compositions comprising same, methods of preparing same and uses of same” (Bayer Schering Pharma AG, priority 2006, dated 2010).

Tests used:
[1] = target: Tie2 (Homo sapiens, UniProt Q02763); test: Tie2 ELISA assay (assay 1): cellular Tie2 autophosphorylation in Tie2-transfected CHO cells stimulated by angiopoietin-2; assay type: cell-based; set-up: expressed in transfected cells; host or cells: CHO (DHFR-deficient), stably transfected: CHO Tie2/DHFR; details: CHO Tie2/DHFR cells, Ang2 stimulated, Tie2 autophosphorylation sandwich-ELISA; pIC50 = -log IC50 molar; read-out: Tie 2 activity (assay 1)
Method: Cellular activity of compounds of the present invention as inhibitors of Tie2 kinase activity was measured employing a Tie2 ELISA assay as described in the following paragraphs. Herein CHO cell-cultures, which are stably transfected by known techniques with Tie2 using DHFR deficiency as selection marker, are stimulated by angiopoietin-2. The specific autophosphorylation of Tie2 receptors is quantified with a sandwich-ELISA using anti-Tie2 antibodies for catch and anti-phosphotyrosine antibodies coupled to HRP for detection.
• 96 well tissue culture plate, sterile, Greiner • 96 well FluoroNunc plate MaxiSorp Surface C, Nunc • 96 well plate polypropylene for compound dilution in DMSO • CHO Tie2/DHFR (transfected cells) • PBS−; PBS++, DMSO • MEM alpha Medium with Glutamax-I without Ribonucleosides and • Deoxyribonucleosides (Gibco #32561-029) • with 10% FCS after dialysis! and 1% PenStrep • Lysis buffer: 1 Tablet “Complete” protease inhibitor • 1 cap Vanadate (1 mL>40 mg/mL; working solution 2 mM) • ad 50 mL with Duschl-Puffer • pH 7.6 • Anti-Tie2-antibody 1:425 in Coating Buffer pH 9.6 • Stock solution: 1.275 mg/mL>working: 3 μg/mL • PBST: 2 bottles PBS(10×)+10 ml Tween, fill up with VE-water • RotiBlock 1:10 in VE-water • Anti-Phosphotyrosine HRP-Conjugated 1:10000 in 3% TopBlock • 3% TopBlock in PBST • BM Chemiluminescence ELISA Substrate (POD) • solution B1:100 solution A • SF9 cell culture medium • Ang2-Fc in SF9 cell culture medium Cell Experiment: • Dispense 5×10^4 cells/well/98 μL in 96 well tissue culture plate • Incubate at 37° C./5% CO2 • After 24 h add compounds according to desired concentrations • Add also to control and stimulated values without compounds 2 μL DMSO • And mix for a few min at room temperature • Add 100 μL Ang2-Fc to all wells except control, which receives insect medium • Incubate 20 min at 37° C. • Wash 3× with PBS++ • Add 100 μl Lysis buffer/well and shake a couple of min at room temperature • Store lysates at 20° C. before utilizing for the ELISA Performance of Sandwich-ELISA • Coat 96 well FluoroNunc Plate MaxiSorp Surface C with anti-Tie2 mAb • 1:425 in Coating buffer pH 9.6; 100 μL/well overnight at 4° C. • Wash 2× with PBST • Block plates with 250 μL/well RotiBlock 1:10 in VE-water • Incubate for 2 h at room temperature or overnight at 4° C. shaking • Wash 2× in PBST • Add thawed lysates to wells and incubate overnight shaking at 4° C. • Wash 2× with PBST • Add 100 μL/well anti-Phosphotyrosine HRP-Conjugated 1:10000 in 3% • TopBlock (3% TopBlock in PBST) and incubate overnight under shaking • Wash 6× with PBST • Add 100 μL/well BM Chemiluminescence ELISA Substrate (POD) • solutions 1 und 2 (1:100) • Determine luminescence with the LumiCount. Assay 2: Tie-2-Kinase HTRF-Assay without Kinase Preactivation

[2] = target: T1, human insuline receptor (Ins-R) kinase domain (Homo sapiens, UniProt P06213); test: InsR HTRF assay (assay 4); assay type: biochemical; details: IC50 assay 4/IC50 assay 2
T1 construct: GST-tagged recombinant kinase domain of the human insuline receptor; GST; purchased ProQinase, Freiburg, Germany; host or cells: SF-9 cells
Method: Inhibitory activity of compounds against the kinase activity of the insulin receptor was quantified employing the Ins-R HTRF assay as described in the following paragraphs.
GST-tagged recombinant kinase domain of the human insuline receptor (Ins-R, purchase from ProQinase, Freiburg, Germany) expressed in SF-9 cells was used as kinase. As substrate for the kinase reaction biotinylated poly-(Glu,Tyr) (Cis biointernational, France) was used.
Ins-R was incubated for 20 min at 22° C. in the presence of different concentrations of test compounds in 5 μl assay buffer [50 mM Hepes/NaOH pH 7, 15 mM MnCl2, 1 mM dithiothreitol, 0.1 μM sodium ortho-vanadate, 0.015% (v/v) PEG20000, 10 μM adenosine-tri-phosphate (ATP), 0.3 μg/ml substrate, 1% (v/v) dimethylsulfoxide]. The concentration of Ins-R was adjusted depending of the activity of the enzyme lot and was chosen appropriate to have the assay in the linear range, typical concentrations were in the range of 10 pg/μl. The reaction was stopped by the addition of 5 μl of a solution of HTRF detection reagents (0.1 μM streptavidine-XLent and 1 nM PT66-Eu-Chelate, an europium-chelate labelled anti-phosphotyrosine antibody from Perkin Elmer) in an aqueous EDTA-solution (80 mM EDTA, 0.2% (w/v) bovine serum albumin in 50 mM HEPES/NaOH pH 7.0).
The resulting mixture was incubated 1 h at 22° C. to allow the binding of the biotinylated phosphorylated peptide to the streptavidine-XLent and the PT66-Eu-Chelate. Subsequently the amount of phosphorylated substrate was evaluated by measurement of the resonance energy transfer from the PT66-Eu-Chelate to the streptavidine-XLent. Therefore, the fluorescence emissions at 620 nm and 665 nm after excitation at 350 nm was measured in a HTRF reader, e.g. a Rubystar (BMG Labtechnologies, Offenburg, Germany) or a Viewlux (Perkin-Elmer). The ratio of the emissions at 665 nm and at […] was taken as the measure for the amount of phosphorylated substrate. The data were normalised (enzyme reaction without inhibitor=0% inhibition, all other assay components but no enzyme=100% inhibition) and IC50 values were calculated by a 4 parameter fit using an inhouse software.

T1 sequence (P06213 1023-1298 limits assumed): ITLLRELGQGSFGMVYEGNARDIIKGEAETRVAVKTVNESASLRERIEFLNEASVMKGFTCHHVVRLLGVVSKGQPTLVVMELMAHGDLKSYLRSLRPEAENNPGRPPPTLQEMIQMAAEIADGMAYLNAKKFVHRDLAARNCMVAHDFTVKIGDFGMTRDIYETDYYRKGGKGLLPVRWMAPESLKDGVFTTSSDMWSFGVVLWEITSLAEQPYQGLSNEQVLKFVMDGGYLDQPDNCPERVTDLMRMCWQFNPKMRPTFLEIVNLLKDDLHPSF
Chain of Tie2 (Q02763 23-1124): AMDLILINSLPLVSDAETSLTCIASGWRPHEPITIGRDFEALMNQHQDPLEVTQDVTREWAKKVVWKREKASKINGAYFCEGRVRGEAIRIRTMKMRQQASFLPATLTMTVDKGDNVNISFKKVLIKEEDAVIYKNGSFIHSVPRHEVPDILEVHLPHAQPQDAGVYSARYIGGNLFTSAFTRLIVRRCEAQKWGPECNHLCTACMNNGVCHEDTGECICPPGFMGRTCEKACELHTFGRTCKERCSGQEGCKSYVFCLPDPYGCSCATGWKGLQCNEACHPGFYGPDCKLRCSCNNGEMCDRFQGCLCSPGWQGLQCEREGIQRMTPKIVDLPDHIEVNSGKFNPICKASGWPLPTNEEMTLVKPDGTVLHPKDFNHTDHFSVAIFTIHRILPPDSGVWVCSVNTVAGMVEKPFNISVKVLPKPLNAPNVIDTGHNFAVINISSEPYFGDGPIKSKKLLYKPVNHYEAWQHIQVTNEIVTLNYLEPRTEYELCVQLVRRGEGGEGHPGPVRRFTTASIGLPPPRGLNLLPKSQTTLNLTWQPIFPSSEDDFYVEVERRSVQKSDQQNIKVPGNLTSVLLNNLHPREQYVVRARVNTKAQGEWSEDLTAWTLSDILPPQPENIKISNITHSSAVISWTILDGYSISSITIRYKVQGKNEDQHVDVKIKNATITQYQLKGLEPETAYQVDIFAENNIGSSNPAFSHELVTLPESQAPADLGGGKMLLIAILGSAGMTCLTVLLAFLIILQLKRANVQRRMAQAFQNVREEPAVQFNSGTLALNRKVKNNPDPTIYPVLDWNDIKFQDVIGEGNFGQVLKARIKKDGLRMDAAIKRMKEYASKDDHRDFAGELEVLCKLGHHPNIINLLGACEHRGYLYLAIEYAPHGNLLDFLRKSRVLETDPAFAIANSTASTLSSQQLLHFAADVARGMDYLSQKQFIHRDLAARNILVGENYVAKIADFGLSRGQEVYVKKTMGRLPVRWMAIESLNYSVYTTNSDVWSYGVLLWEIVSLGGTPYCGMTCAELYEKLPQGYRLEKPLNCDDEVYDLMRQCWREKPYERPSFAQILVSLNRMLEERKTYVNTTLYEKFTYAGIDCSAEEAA

| IC50 [1] [nM] | Selectivity vs. InsR [2] [fold] | Structure (SMILES) |
| --- | --- | --- |
| 501 to 1000 | >20 | Cc1cccc(NC(=O)Nc2ccc(-c3cc(C(C)(C)C)nc4[nH]ncc34)cc2)c1 [1.11, 1-[4-(6-tert-Butyl-1H-pyrazolo[3,4-b]pyridin-4-yl)-phenyl]-3-m-tolyl-urea] |
| < 501 | >20 | CN1CCN(Cc2ccc(NC(=O)Nc3ccc(-c4ccnc5c4cnn5C)cc3)cc2C(F)(F)F)CC1 [1.24, 1-[4-(4-Methyl-piperazin-1-ylmethyl)-3-trifluoromethyl-phenyl]-3-[4-(1-methyl-1H-pyrazolo[3,4-b]pyridin-4-yl)-phenyl]-urea] |
| < 501 | >20 | Cc1ccc(F)c(NC(=O)Nc2ccc(-c3ccnc4c3cnn4C)cc2)c1 [1.7, 1-(2-Fluoro-5-methyl-phenyl)-3-[4-(1-methyl-1H-pyrazolo[3,4-b]pyridin-4-yl)-phenyl]-urea] |
| < 501 | >20 | Cc1ccc(F)c(NC(=O)Nc2ccc(-c3cc(CN4CCOCC4)nc4c3cnn4C)cc2)c1 [3.5, 1-(2-Fluoro-5-methyl-phenyl)-3-[4-(1-methyl-6-morpholin-4-ylmethyl-1H-pyrazolo[3,4-b]pyridin-4-yl)-phenyl]-urea] |
| < 501 | >20 | CCc1cccc(NC(=O)Nc2ccc(-c3cc(CN4CCOCC4)nc4c3cnn4C)cc2)c1 [3.4, 1-(3-Ethyl-phenyl)-3-[4-(1-methyl-6-morpholin-4-ylmethyl-1H-pyrazolo[3,4-b]pyridin-4-yl)-phenyl]-urea] |
| < 501 | >20 | Cn1ncc2c(-c3ccc(NC(=O)Nc4cccc(C(F)(F)F)c4)cc3)cc(CN3CCOCC3)nc21 [3.2, 1-[4-(1-Methyl-6-morpholin-4-ylmethyl-1H-pyrazolo[3,4-b]pyridin-4-yl)-phenyl]-3-(3-trifluoromethyl-phenyl)-urea] |
| < 501 | >20 | Cn1ncc2c(-c3ccc(NC(=O)Nc4cccc(C(F)(F)F)c4)cc3)ccnc21 [1.4, 1-[4-(1-Methyl-1H-pyrazolo[3,4-b]pyridin-4-yl)-phenyl]-3-(3-trifluoromethyl-phenyl)-urea] |
| < 501 | >20 | Cc1ccc(F)c(NC(=O)Nc2ccc(-c3ccnc4[nH]ncc34)cc2)c1 [1.22, 1-(2-Fluoro-5-methyl-phenyl)-3-[4-(1H-pyrazolo[3,4-b]pyridin-4-yl)-phenyl]-urea] |

More lines, now with the values behind:

| Structure (SMILES) | IC50 [1] [nM] | Selectivity vs. InsR [2] [fold] |
| --- | --- | --- |
| Cc1ccc(F)c(NC(=O)Nc2ccc(-c3cc(C4(C(=O)N(C)C)CC4)nc4c3cnn4C)cc2)c1 [1.29, 1-(4-{4-[3-(2-Fluoro-5-methyl-phenyl)-ureido]-phenyl}-1-methyl-1H-pyrazolo[3,4-b]pyridin-6-yl)-cyclopropane-carboxylic acid dimethylamide] | < 501 | >20 |
| Cn1ncc2c(-c3ccc(NC(=O)Nc4cc(C(F)(F)F)ccc4F)cc3)ccnc21 [1.8, 1-(2-Fluoro-5-trifluoromethyl-phenyl)-3-[4-(1-methyl-1H-pyrazolo[3,4-b]-pyridin-4-yl)-phenyl]-urea] | < 501 | >20 |
| CC(C)c1cc(-c2ccc(NC(=O)Nc3cccc(C(F)(F)F)c3)cc2)c2cnn(C)c2n1 [1.3, 1-[4-(6-Isopropyl-1-methyl-1H-pyrazolo[3,4-b]pyridin-4-yl)-phenyl]-3-(3-trifluoromethyl-phenyl)-urea] | < 501 | >20 |
| CC(C)c1cc(-c2ccc(NC(=O)Nc3cccc(C(F)(F)F)c3)cc2)c2cn[nH]c2n1 [1.2, 1-[4-(6-Isopropyl-1H-pyrazolo[3,4-b]pyridin-4-yl)-phenyl]-3-(3-trifluoromethyl-phenyl)-urea] | < 501 | >20 |
| CN(C)C(=O)C1(c2cc(-c3ccc(NC(=O)Nc4cccc(C(F)(F)F)c4)cc3)c3cnn(C)c3n2)CC1 [1.26, 1-(1-Methyl-4-{4-[3-(3-trifluoromethyl-phenyl)-ureido]-phenyl}-1H-pyrazolo[3,4-b]pyridin-6-yl)-cyclopropane-carboxylic acid dimethylamide] | < 501 | >20 |
| O=C(Nc1ccc(-c2ccnc3[nH]ncc23)cc1)Nc1cccc(C(F)(F)F)c1 [1.20, 1-[4-(1H-Pyrazolo[3,4-b]pyridin-4-yl)-phenyl]-3-(3-trifluoromethyl-phenyl)-urea] | < 501 | >20 |
| CN1CCN(Cc2ccc(NC(=O)Nc3ccc(-c4cc(C(C)(C)C)nc5[nH]ncc45)cc3)cc2C(F)(F)F)CC1 [1.15, 1-[4-(6-tert-Butyl-1H-pyrazolo[3,4-b]pyridin-4-yl)-phenyl]-3-[4-(4-methyl-piperazin-1-ylmethyl)-3-trifluoromethyl-phenyl]-urea] | < 501 | >20 |
| CN1CCC(Oc2ccc(NC(=O)Nc3ccc(-c4ccnc5c4cnn5C)cc3)cc2C(F)(F)F)CC1 [1.23, 1-[4-(1-Methyl-piperidin-4-yloxy)-3-trifluoromethyl-phenyl]-3-[4-(1-methyl-1H-pyrazolo[3,4-b]pyridin-4-yl)-phenyl]-urea] | < 501 | >20 |
| CCc1cccc(NC(=O)Nc2ccc(-c3cc(C(C)(C)C)nc4[nH]ncc34)cc2)c1 [1.1, 1-[4-(6-tert-Butyl-1H-pyrazolo[3,4-b]pyridin-4-yl)-phenyl]-3-(3-ethylphenyl)-urea] | < 501 | >20 |
| Cn1ncc2c(-c3ccc(NC(=O)Nc4cccc(C(F)(F)F)c4)cc3)cc(C3CCCCC3)nc21 [1.38, 1-[4-(6-Cyclohexyl-1-methyl-1H-pyrazolo[3,4-b]pyridin-4-yl)-phenyl]-3-(3-trifluoromethyl-phenyl)-urea] | < 501 | >20 |
| Cc1cc(-c2ccc(NC(=O)Nc3ccc(F)c(C(F)(F)F)c3)cc2)c2cnn(C)c2n1 [2.5, 1-[4-(1,6-Dimethyl-1H-pyrazolo[3,4-b]pyridin-4-yl)-phenyl]-3-(4-fluoro-3-trifluoromethyl-phenyl)-urea] | 501 to 1000 | >20 |
